We go through 8 compounds from US4539331A, “Imidazole carboxamide derivatives and pharmaceutical compositions thereof” (priority 1981, dated 1985).

Like-named read-outs stand apart in the source and are kept apart here.

For series [1], the system named is writhing. As to the kind of experiment: writhing test (analgesic activity). In kind it is in vivo, mouse. The note with it: for ED50: Mus musculus, ip.
Series [2] relates to gastric mucous. In kind it is in vivo, rat. From the text:
In the gastric tolerance test, the product was compared with aspirin and phenylbutazone on the rat, with oral administration.

Series [3] concerns carrageenin oedema. As to the kind of experiment: carrageenin oedema method (anti-inflammatory activity). The note with it: Rattus norvegicus; oral. In kind it is in vivo. (In general: The carrageenan paw model is a standard test of acute inflammation.)
The subject of series [4] is beer yeast induced fever. The series is described as follows: beer yeast induced fever (antipyretic activity). In kind it is in vivo.
The nature of series [5]: acute toxicity, rat. Particulars: in vivo. The source says:
(§1) The acute toxicity in the rat and mouse is low

Series [6] is described as follows: acute toxicity, mouse. Particulars: in vivo.
Source text: as §1

Series [7] can be described thus: solubility. In kind it is physicochemical.

One may read the ED50 as the dose at which the effect has come halfway, by size or by number of responders. Consider `Cc1ccc(F)cc1NC(=O)c1nc[nH]c1C` [Example 5c, N-(5-fluoro-2-methylphenyl)-5-methyl-4-imidazolecarboxamide], for which the ED50 in series [1] (read-out: ED50) was found to be 50 mg/kg.
Consider `CCCCC1C(=O)N(c2ccccc2)N(c2ccccc2)C1=O` [Phenylbutazone, reference compound], for which, in series [2] (rat, in vivo, po, 200 mg/kg), the gastric alterations result was “haemorrhage spots, congestion and oedema”. Also, in series [3], the ED50 worked out at 45 mg/kg.
Broadly, the LD50 is the dose expected to kill half of the subjects tested. On to `Cc1ccc(NC(=O)c2nc[nH]c2C)cc1Cl` [Example 1, N-(3-chloro-4-methylphenyl)-5-methyl-4-imidazolecarboxamide], for which the ED50 in series [4] (oral, read-out: ED50) was determined as 48 mg/kg; in series [3], 60 mg/kg; in series [1] (read-out: ED50), 30 mg/kg. The “antipyretic activity relative to aspirin” value in series [4] (relative to aspirin) is recorded as “three times that of aspirin”. The “antipyretic activity relative to pyramidon” value in series [4] (relative to pyramidon) is “slightly superior to that of pyramidon”. Also, the LD50 in series [5] (ip) is 560 mg/kg; in series [5] (oral), over 12000 mg/kg; in series [6] (ip), 700 mg/kg; in series [6] (oral), over 8000 mg/kg. The solubility in acetone entry in series [7] (acetone) is listed as “soluble”. In series [7] (acid aqueous medium), the “solubility in an acid aqueous medium” value was “sparingly soluble”. The solubility in chloroform entry in series [7] (chloroform) was “moderately soluble”. Besides, in series [7] (ethanol), the solubility in ethanol result is “soluble”. Besides, the solubility in isopropanol entry in series [7] (isopropanol) is “soluble”. Besides, the solubility in methanol result in series [7] (methanol) was “soluble”. Also, the solubility in toluene entry in series [7] (toluene) was “insoluble”. Moreover, in series [7] (water), the solubility in water result was “insoluble”. Further, the “analgesic action relative to aspirin” value in series [1] (relative to aspirin) stood at 1.5 times.
Consider `COc1ccc(Cl)cc1NC(=O)c1nc[nH]c1C` [Example 5a, N-(5-chloro-2-methoxyphenyl)-5-methyl-4-imidazolecarboxamide], for which it took a dose of 78 mg/kg to reach the 50% effect level in series [3] (ED50).
Regarding `Cc1cc(NC(=O)c2nc[nH]c2C)ccc1[N+](=O)[O-]` [Example 5b, N-(3-methyl-4-nitrophenyl)-5-methyl-4-imidazolecarboxamide], the ED50 in series [4] (oral, read-out: ED50) turned out to be 58 mg/kg; in series [1] (read-out: ED50), 35 mg/kg.
Take `CC(=O)Oc1ccccc1C(=O)O` [Aspirin, reference compound]: the ED50 in series [4] (po) is 140 mg/kg; in series [1], 45 mg/kg. In series [2] (oral, 1000 mg/kg), the gastric alterations entry was “haemorrhage spots, congestion and oedema”.
Regarding `Cc1[nH]cnc1C(=O)Nc1ccc(Cl)c([N+](=O)[O-])c1` [Example 5h, N-(4-chloro-3-nitrophenyl)-5-methyl-4-imidazolecarboxamide], the ED50 in series [1] (read-out: ED50) was determined as 33 mg/kg.
As for `Cc1c(N(C)C)c(=O)n(-c2ccccc2)n1C` [Pyramidon, reference compound], in series [4] (oral, read-out: ED50), the ED50 turned out to be 55 mg/kg.
